# Data reported in patent US4540688A, “β-Lactam antibiotics” (Beecham Group p.l.c., priority 1982, dated 1985).
# Legend:
# Format in all cases: cell-based
# [1] = system: P. mirabilis C977; assay: Antibacterial in vitro activity (MIC), P. mirabilis C977; settings: Proteus mirabilis
# [2] = system: N. catarrhalis 1502; assay: Antibacterial in vitro activity (MIC), N. catarrhalis 1502
# [3] = system: K. aerogenes A; assay: Antibacterial in vitro activity (MIC), K. aerogenes A; settings: Klebsiella aerogenes
# [4] = system: E. coli JT4; assay: Antibacterial in vitro activity (MIC), E. coli JT4; settings: Escherichia coli
# [5] = system: Ps. aeruginosa NCTC 10662; assay: Antibacterial in vitro activity (MIC), Ps. aeruginosa NCTC 10662; settings: Pseudomonas aeruginosa
# [6] = system: E. coli NCTC 10418; assay: Antibacterial in vitro activity (MIC), E. coli NCTC 10418; settings: Escherichia coli, NCTC10418
# [7] = system: E. coli ESS; assay: Antibacterial in vitro activity (MIC), E. coli ESS; settings: Escherichia coli
# [8] = system: S. pyogenes CN10; assay: Antibacterial in vitro activity (MIC), S. pyogenes CN10; settings: Streptococcus pyogenes
# [9] = system: E. coli JT425; assay: Antibacterial in vitro activity (MIC), E. coli JT425; settings: Escherichia coli
# [10] = system: Ps. aeruginosa Dalgleish; assay: Antibacterial in vitro activity (MIC), Ps. aeruginosa Dalgleish; settings: Pseudomonas aeruginosa; Ps. aeruginosa Dalgleish 10^-2
# [11] = system: S. marcesens US32; assay: Antibacterial in vitro activity (MIC), S. marcesens US32
# [12] = system: E. cloacae N1; assay: Antibacterial in vitro activity (MIC), E. cloacae N1; settings: Enterobacter cloacae
# [13] = system: P. rettgeri; assay: Antibacterial in vitro activity (MIC), P. rettgeri; settings: Providencia rettgeri
smiles,measurement,setting,value
"CCN1CCN(C(=O)N[C@@H](C(=O)N[C@@H]2C(=O)N3[C@@H](C(=O)O)CS[C@H]23)c2ccc(O)c(O)c2)C(=O)C1=O [Example 3, Sodium 6,β[D-2-(4-ethyl-2,3-dioxopiperazine-1-carbonylamino)-2-(3,4-dihydroxyphenyl)]acetamidobisnorpenicillanate]",MIC,[1],100 µg/mL
same,MIC,[2],20 µg/mL
same,MIC,[3],50 µg/mL
same,MIC,[4],1000 µg/mL
same,MIC,"[5]; NCTC10662, Ps. aeruginosa NCTC 10662",1000 µg/mL
same,MIC,"[5]; NCTC10662, Ps. aeruginosa NCTC 10662 10^-2",100 µg/mL
same,MIC,[6],20 µg/mL
same,MIC,[7],20 µg/mL
same,MIC,[8],500 µg/mL
same,MIC,[9],50 µg/mL
same,MIC,[10],2500 µg/mL
same,MIC,[11],200 µg/mL
same,MIC,[12],500 µg/mL
same,MIC,[13],200 µg/mL
